Experimental findings from patent US8993616B2, “(aza)indole derivative and use thereof for medical purposes” (Kissei Pharmaceutical Co., Ltd., priority 2007, dated 2015) are described below.

What is called IC50 is the concentration that gives 50% inhibition. Low readings indicate higher potency, high ones lower potency. As a reminder, the inhibition is how much of the control response was suppressed. Read a high inhibition as a response far below the control.

Sequence of human URAT1 (Q96S37 whole entry): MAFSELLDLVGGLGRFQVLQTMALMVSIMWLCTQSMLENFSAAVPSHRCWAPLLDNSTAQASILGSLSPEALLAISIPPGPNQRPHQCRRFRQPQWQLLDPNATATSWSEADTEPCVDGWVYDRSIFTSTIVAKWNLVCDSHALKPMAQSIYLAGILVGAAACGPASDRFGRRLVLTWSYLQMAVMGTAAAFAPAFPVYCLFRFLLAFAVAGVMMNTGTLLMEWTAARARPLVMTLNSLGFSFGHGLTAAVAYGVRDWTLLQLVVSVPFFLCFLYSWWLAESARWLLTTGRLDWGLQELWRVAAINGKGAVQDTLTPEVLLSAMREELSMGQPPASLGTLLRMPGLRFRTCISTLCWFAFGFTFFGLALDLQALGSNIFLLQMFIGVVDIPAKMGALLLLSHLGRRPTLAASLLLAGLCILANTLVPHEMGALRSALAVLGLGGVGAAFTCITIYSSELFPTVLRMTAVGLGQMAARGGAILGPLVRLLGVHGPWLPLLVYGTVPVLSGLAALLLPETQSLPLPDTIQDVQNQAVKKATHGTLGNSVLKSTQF

In one assay the target is Xanthine oxidase (from bovine milk, Sigma) (Bos taurus (Bovine), UniProt P80457). Briefly: Xanthine oxidase inhibitory activity. It counts as biochemical. The following applies: xanthine substrate, 10 minutes at room temperature, absorbance at 290 nm. As to the method: (1) Preparation of Test Compounds
Sequence of Xanthine oxidase (from bovine milk, Sigma) (P80457 whole entry): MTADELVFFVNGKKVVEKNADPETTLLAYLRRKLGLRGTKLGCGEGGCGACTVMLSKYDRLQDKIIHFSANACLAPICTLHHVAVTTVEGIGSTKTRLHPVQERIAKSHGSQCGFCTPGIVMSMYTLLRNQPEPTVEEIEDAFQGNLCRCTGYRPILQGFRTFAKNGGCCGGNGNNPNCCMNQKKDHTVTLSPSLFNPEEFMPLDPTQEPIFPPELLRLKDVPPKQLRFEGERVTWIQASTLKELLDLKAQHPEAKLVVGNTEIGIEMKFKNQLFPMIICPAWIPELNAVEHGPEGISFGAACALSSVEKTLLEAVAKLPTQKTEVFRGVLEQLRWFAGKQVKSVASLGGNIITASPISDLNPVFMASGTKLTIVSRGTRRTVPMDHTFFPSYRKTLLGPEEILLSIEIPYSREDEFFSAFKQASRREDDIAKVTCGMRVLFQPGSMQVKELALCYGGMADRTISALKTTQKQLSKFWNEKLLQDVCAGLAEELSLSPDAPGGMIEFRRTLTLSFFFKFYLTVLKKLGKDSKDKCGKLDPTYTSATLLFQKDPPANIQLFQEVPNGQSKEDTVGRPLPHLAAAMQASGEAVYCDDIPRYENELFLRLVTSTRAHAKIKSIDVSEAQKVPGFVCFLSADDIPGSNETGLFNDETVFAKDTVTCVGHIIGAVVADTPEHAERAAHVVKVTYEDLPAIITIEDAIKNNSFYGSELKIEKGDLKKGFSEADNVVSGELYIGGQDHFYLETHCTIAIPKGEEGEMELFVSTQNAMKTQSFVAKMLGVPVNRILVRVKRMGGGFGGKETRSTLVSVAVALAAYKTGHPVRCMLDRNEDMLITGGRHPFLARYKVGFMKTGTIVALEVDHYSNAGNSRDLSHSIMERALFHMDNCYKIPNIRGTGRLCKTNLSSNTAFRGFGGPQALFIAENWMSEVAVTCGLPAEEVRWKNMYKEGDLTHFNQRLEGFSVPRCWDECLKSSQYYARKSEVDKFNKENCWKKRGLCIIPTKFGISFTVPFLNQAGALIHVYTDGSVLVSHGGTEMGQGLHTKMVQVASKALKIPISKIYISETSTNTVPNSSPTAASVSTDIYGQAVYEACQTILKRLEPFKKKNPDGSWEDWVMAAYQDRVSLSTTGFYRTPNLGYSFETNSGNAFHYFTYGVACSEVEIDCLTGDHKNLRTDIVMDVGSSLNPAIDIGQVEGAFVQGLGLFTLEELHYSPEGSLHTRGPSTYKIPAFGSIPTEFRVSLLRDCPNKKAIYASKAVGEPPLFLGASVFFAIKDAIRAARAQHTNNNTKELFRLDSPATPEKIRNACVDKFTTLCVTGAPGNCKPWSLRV
Test compounds were dissolved in DMSO (Wako) at 40 mM concentration and then diluted to intended concentrations with phosphate-buffered saline (PBS).
(2) Method for Measurement
Xanthine oxidase (from bovine milk, Sigma) was prepared with phosphate-buffered saline (PBS) at 0.02 units/mL, and then the solution was added to 96 well plates at 50 μL/well. In addition, test compounds diluted with PBS were added at 50 μL/well. Xanthine (Wako) at 200 μM prepared with PBS was added at 100 μL/well, and the reaction was conducted for 10 minutes at room temperature. Absorbance at 290 nm was measured using a microplate reader SpectraMax Plus 384 (Molecular device). The absorbance under a condition without xanthine is 0%, and control without test compounds is 100%. Fifty % inhibitory concentration of a test compound (IC50) was calculated (Table 60). Ex. No in the table indicates Example number.
`N#Cc1cn(-c2ccc(C(=O)O)c(O)c2)c2cc(F)ccc12` [Example 192] registered an IC50 of 4.3 nM.
Still for that read-out and setting: the value for `N#Cc1cn(-c2ccc(C(=O)O)c(O)c2)c2cc(F)c(F)cc12` [Example 3, 4-(3-Cyano-5,6-difluoroindol-1-yl)-2-hydroxybenzoic acid] was 6.5 nM; that for `N#Cc1cn(-c2ccc(C(=O)O)c(O)c2)c2cc(Cl)c(F)cc12` [Example 193] was 4.6 nM.
Still for that read-out and setting: the value for `N#Cc1cn(-c2ccc(C(=O)O)c(O)c2)c2ccc(F)cc12` [Example 191] was 3.9 nM.
Still for that read-out and setting: with `CS(=O)(=O)c1ccc(-c2ccc3c(c2)c(C#N)cn3-c2ccc(C(=O)O)cc2)cc1` [Example 167] the figure was 10.9 nM; with `N#Cc1ccc2c(c1)c(C#N)cn2-c1ccc(C(=O)O)c(O)c1` [Example 206], 7.2 nM.
As to `CC(C)Oc1ccc2c(c1)c(C#N)cn2-c1ccc(C(=O)O)c(O)c1` [Example 209], it took 11 nM to reach half-maximal inhibition (IC50). This IC50 lies about 1.5-fold higher than the previous one.
The same measure, in the same setting: with `N#Cc1cn(-c2ccc(C(=O)O)c(O)c2)c2cccc(OCc3ccccc3)c12` [Example 202] the figure was 61.8 nM; with `COc1ccc(-c2ccc3c(c2)c(C#N)cn3-c2ccc(C(=O)O)cc2)cc1` [Example 15, 4-[3-Cyano-5-(4-methoxyphenyl)indol-1-yl]benzoic acid], 15.5 nM; with `CN(C)c1ccc(-c2ccc3c(c2)c(C#N)cn3-c2ccc(C(=O)O)cc2)cc1` [Example 165], 111 nM.
Same read-out and setting: with `N#Cc1cn(-c2ccc(C(=O)O)c(O)c2)c2ccc(OCC(=O)O)cc12` [Example 213] the figure was 7.2 nM.
Same read-out and setting: with `N#Cc1cn(-c2ccc(C(=O)O)c(O)c2)c2ccc(Cl)cc12` [Example 197] the figure was 9 nM; with `CCCOc1ccc2c(C#N)cn(-c3ccc(C(=O)O)c(O)c3)c2c1` [Example 220], 9.4 nM.
Regarding `CS(=O)(=O)Nc1ccc(-c2ccc3c(c2)c(C#N)cn3-c2ccc(C(=O)O)cc2)cc1` [Example 183], the IC50 amounted to 7.5 nM.
Still for that read-out and setting: with `N#Cc1cn(-c2ccc(C(=O)O)cc2)c2ccc(/C=C/C(=O)O)cc12` [Example 17, 4-[5-((E)-2-Carboxyvinyl)-3-cyanoindol-1-yl]benzoic acid] the figure was 12.1 nM; with `N#Cc1cn(-c2ccc(C(=O)O)c(O)c2)c2ccc(O)cc12` [Example 201], 5.5 nM.
Still for that read-out and setting: with `N#Cc1cn(-c2ccc(C(=O)O)c(O)c2)c2cc(OCCO)ccc12` [Example 218] the figure was 6 nM; with `N#Cc1cn(-c2ccc(C(=O)O)cc2)c2ccc(OCCCN)cc12` [Example 181], 17.2 nM.
Same read-out and setting: with `N#Cc1cn(-c2ccc(C(=O)O)c(O)c2)c2cc(OCC3CCC3)ccc12` [Example 234] the figure was 86.5 nM; with `CS(=O)(=O)NCCOc1ccc2c(C#N)cn(-c3ccc(C(=O)O)c(O)c3)c2c1` [Example 238], 8.3 nM.
`N#Cc1cn(-c2ccc(C(=O)O)c(O)c2)c2cc3c(cc12)OCO3` [Example 194] had an IC50 of 8.3 nM.
On the same count and under the same terms, the value for `CC(C)Oc1ccc2c(C#N)cn(-c3ccc(C(=O)O)c(O)c3)c2c1` [Example 224] was 9.7 nM; that for `COc1ccc2c(C#N)cn(-c3ccc(C(=O)O)c(O)c3)c2c1` [Example 217] was 6 nM.
Still for that read-out and setting: with `N#Cc1cn(-c2ccc(C(=O)O)cc2)c2cccc(OCc3ccccc3)c12` [Example 19, 4-(4-Benzyloxy-3-cyanoindol-1-yl)benzoic acid] the figure was 96 nM; with `CN(Cc1ccccc1)C(=O)c1ccc2c(c1)c(C#N)cn2-c1ccc(C(=O)O)cc1` [Example 161], 49.8 nM.
Still for that read-out and setting: with `N#Cc1cn(-c2ccc(C(=O)O)cc2)c2ccc(OCCOc3ccccc3)cc12` [Example 154] the figure was 19 nM; with `Cc1cc2c(cc1OCc1ccccc1)c(C#N)cn2-c1ccc(C(=O)O)cc1` [Example 149], 38 nM.
`N#Cc1cccc2c1c(C#N)cn2-c1ccc(C(=O)O)c(O)c1` [Example 208] displayed an IC50 of 6 nM.
Same read-out and setting: the value for `COc1ccc2c(c1)c(C#N)cn2-c1ccc(C(=O)O)c(O)c1` [Example 196] was 6.7 nM.
On the same count and under the same terms, with `CCCCOc1ccc2c(C#N)cn(-c3ccc(C(=O)O)c(O)c3)c2c1` [Example 221] the figure was 71.5 nM.
With `N#Cc1cn(-c2ccc(C(=O)O)c(O)c2)c2cc(O)ccc12` [Example 212], half-maximal inhibition (IC50) required 5.1 nM.
In turn, `CC(C)Oc1cc2c(C#N)cn(-c3ccc(C(=O)O)cc3)c2cc1F` [Example 303] came in with an IC50 of 10 nM.
On the same count and under the same terms, with `N#Cc1cn(-c2ccc(C(=O)O)cc2)c2cc(OCCO)ccc12` [Example 186] the figure was 49.7 nM.
In the case of `N#Cc1cn(-c2ccc(C(=O)O)c(O)c2)c2cccc(O)c12` [Example 203], 7.1 nM corresponded to half-maximal inhibition (IC50). This IC50 lies about 7-fold lower than the previous one.
Same read-out and setting: with `CCOc1ccc2c(c1)c(C#N)cn2-c1ccc(C(=O)O)c(O)c1` [Example 214] the figure was 11 nM; with `CC(C)COc1ccc2c(c1)c(C#N)cn2-c1ccc(C(=O)O)c(O)c1` [Example 205], 27.6 nM; with `CC(=O)NCCOc1ccc2c(C#N)cn(-c3ccc(C(=O)O)c(O)c3)c2c1` [Example 12, 4-[6-(2-Acetylaminoethyloxy)-3-cyanoindol-1-yl]-2-hydroxybenzoic acid], 7 nM.
Same read-out and setting: the value for `N#Cc1cn(-c2ccc(C(=O)O)c(O)c2)c2cc(OCCCO)ccc12` [Example 228] was 7.5 nM; that for `N#Cc1cn(-c2ccc(C(=O)O)c(O)c2)c2cc(OCc3ccc(Cl)cc3)ccc12` [Example 232] was 42.5 nM.
`CS(=O)(=O)Nc1ccc2c(c1)c(C#N)cn2-c1ccc(C(=O)O)cc1` [Example 182] gave an IC50 of 16.3 nM.
On the same count and under the same terms, the value for `N#Cc1cn(-c2ccc(C(=O)O)c(O)c2)c2ccccc12` [Example 188] was 5 nM; that for `Cc1cc2c(C#N)cn(-c3ccc(C(=O)O)c(O)c3)c2cc1F` [Example 316] was 10 nM.

The target in the next assay is human URAT1 (Homo sapiens (Human), UniProt Q96S37). Briefly: Inhibitory activity of uric acid transport with human URAT1 expressing cells. It counts as cell-based. The following applies: COS-7; 10 μM test compound; 14C-labeled uric acid uptake in COS7 cells transiently expressing human URAT1, 5 minutes. As to the method:
(1) Preparation of Transiently Human URAT1 Expressing Cells
Full length human URAT1 cDNA (NCBI Accession No. NM_144585) was subcloned into expression vector, pcDNA3.1 (Invitrogen). Human URAT1 expression vector was transfected into COS7 cells (RIKEN CELL BANK RCB0539) using Lipofectamine 2000. COS7 cells were cultured in collagen-coated 24 well plates (Asahi Techno Glass) at 2×10^5/well in D-MEM culture medium (Invitrogen) containing 10% fetal bovine serum (Sanko Junyaku) for 2 hours at 37° C. under the condition of 5% CO2. For 1 well, 2 μL of Lipofectamine 2000 was diluted in 50 μL of OPTI-MEM (Invitrogen) and allowed to stand at room temperature for 7 minutes (hereinafter referred to as Lipo2000-OPTI). For 1 well, 0.8 μg of human URAT1 expression vector was diluted in 50 μL of OPTI-MEM (Invitrogen) and combined gently with Lipo2000-OPTI. After standing at room temperature for 25 minutes, the mixture was added to COS7 cells at 100 μL/well. […]
All tests were performed on hot-plate at 37° C. […] After mixing, the radioactivity was counted in a liquid scintillation counter (PerkinElmer). The radioactivity in COST cells not transfected with URAT1 expression vector was also counted under the same condition as control. […]
• A: Radioactivity in control • B: Radioactivity in the case of addition of test compounds • C: Radioactivity in COST cells not transfected with URAT1 expression vector
`N#Cc1cn(-c2ccc(C(=O)O)c(O)c2)c2cc(Cl)c(F)cc12` [Example 193] gave an inhibition at 10 µM of 47%.
In the case of `N#Cc1cn(-c2ccc(C(=O)O)c(O)c2)c2cc3c(cc12)OCO3` [Example 194], testing at 10 µM gave an inhibition of 64%.

Tested on in the next assay: not listed separately
Briefly: Serum hypouricemic effect. The following applies: 3 mg/kg orally, overnight fasted male CD (SD) IGS rats, 2 hours after administration. The assay is classed as in vivo. The procedure:
(1) Method for Measurement
Test compounds at 3 mg/kg suspended in 0.5% methylcellulose solution were administered orally to overnight fasted male CD (SD) IGS rats (5-week-old, Charls River Japan). At 2 hours after administration, blood was collected under ether anesthesia from abdominal aorta, and serum was separated according to general method. Serum uric acid values were determined by use of uric acid measurement kit (Uric acid C-Test Wako: Wako), and percent decrease in uric acid was calculated according to the formula described below.
Percent decrease in uric acid (%)=(Serum uric acid values in control animals—Serum uric acid values in animals administered test compounds)×100/Serum uric acid values in control animals
On to `N#Cc1cn(-c2ccc(C(=O)O)c(O)c2)c2cc(F)ccc12` [Example 192], for which the “Percent decrease in uric acid (hypouricemic effect)” value was “over 60%”.
The same measure, in the same setting: with `N#Cc1cn(-c2ccc(C(=O)O)c(O)c2)c2cc(F)c(F)cc12` [Example 3, 4-(3-Cyano-5,6-difluoroindol-1-yl)-2-hydroxybenzoic acid] the entry was “over 60%”.
Same read-out and setting: the value for `N#Cc1cn(-c2ccc(C(=O)O)c(O)c2)c2ccc(F)cc12` [Example 191] was “over 60%”; that for `N#Cc1cn(-c2ccc(C(=O)O)c(O)c2)c2ccccc12` [Example 188] was “over 60%”.
